Results taken from patent publication US20060135773A1, “Trisubstituted nitrogen modulators of tyrosine phosphatases” (priority 2004, published 2006).

Molecular target: T1, PTP-1B (Homo sapiens, UniProt P18031)
T1 construct: PTP-1B (purified, 1 mg/mL) as a 1:250 dilution
T1 sequence (P18031 1-321 limits assumed): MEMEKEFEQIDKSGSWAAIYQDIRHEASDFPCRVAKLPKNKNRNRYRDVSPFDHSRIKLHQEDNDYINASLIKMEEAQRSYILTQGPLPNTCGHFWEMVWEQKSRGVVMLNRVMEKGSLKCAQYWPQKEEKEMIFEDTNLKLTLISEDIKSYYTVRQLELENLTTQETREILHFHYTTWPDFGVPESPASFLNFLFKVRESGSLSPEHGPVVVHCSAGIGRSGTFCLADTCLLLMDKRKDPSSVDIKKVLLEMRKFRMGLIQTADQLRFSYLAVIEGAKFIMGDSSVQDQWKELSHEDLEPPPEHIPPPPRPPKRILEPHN
Experiment: pNPP tyrosine phosphatase inhibition assay, PTP-1B
Assay type: biochemical
Settings: pNPP assay, PTP-1B; read-out: Activity Class (IC50 ranges)
In short: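 Test compounds were screened at two final levels, 31.3 and 10 µM, against 4 µg/mL purified PTP-1B. The substrate was 10 mM p-nitrophenyl phosphate, with incubation for 10 min at 30°C before a K2CO3 quench. Activity was taken from A405.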

COc1ccccc1S(=O)(=O)N(CCc1cccc(-c2cccc(C(=O)O)c2)c1)Cc1ccc(C(F)(F)P(=O)(O)O)c(Cl)c1 [Compound 189, 3′-{2-[[3-Chloro-4-(difluoro-phosphono-methyl)-benzyl]-(2-methoxy-benzenesulfonyl)-amino]-ethyl}-biphenyl-3-carboxylic acid] and O=P(O)(O)C(F)(F)c1ccc(CN(Cc2ccc(C(F)(F)P(=O)(O)O)cc2)S(=O)(=O)c2ccccc2C(F)(F)F)cc1 [Compound 90, [(4-{[[4-(Difluoro-phosphono-methyl)-benzyl]-(2-trifluoromethyl-benzenesulfonyl)-amino]-methyl}-phenyl)-difluoro-methyl]-phosphonic acid] fall in the same range of IC50: 250 to 499 nM for the first, 250 to 499 nM for the second.

Compared with COc1ccccc1S(=O)(=O)N(Cc1ccc(OCc2nn[nH]n2)cc1)Cc1ccc(S(C)(=O)=O)cc1 [Compound 128, N-(4-Methanesulfonyl-benzyl)-2-methoxy-N-[4-(2H-tetrazol-5-ylmethoxy)-benzyl]-benzenesulfonamide], COc1ccccc1S(=O)(=O)N(Cc1ccc(-c2ccc(Cl)c(C(=O)O)c2)cc1)Cc1ccc(C(F)(F)P(=O)(O)O)c(Cl)c1 [Compound 176, 4-Chloro-4′-{[[3-chloro-4-(difluoro-phosphono-methyl)-benzyl]-(2-methoxy-benzenesulfonyl)-amino]-methyl}-biphenyl-3-carboxylic acid] is lower in IC50: over 25000 nM for the first, under 99 nM for the second. The second is the more potent here.

Compared with CS(=O)(=O)c1ccc(CN(Cc2ccc(C(F)(F)P(=O)(O)O)c(Br)c2)S(=O)(=O)c2ccccc2Cl)cc1 [Compound 102, [(2-Bromo-4-{[(2-chloro-benzenesulfonyl)-(4-methanesulfonyl-benzyl)-amino]-methyl}-phenyl)-difluoro-methyl]-phosphonic acid], O=P(O)(O)C(F)(F)c1ccc(CN(Cc2ccc(Cl)c(Cl)c2)S(=O)(=O)c2ccc(Oc3ccccc3)cc2)cc1Br [Compound 109, [(2-Bromo-4-{[(3,4-dichloro-benzyl)-(4-phenoxy-benzenesulfonyl)-amino]-methyl}-phenyl)-difluoro-methyl]-phosphonic acid] is higher in IC50: 100 to 249 nM for the first, 250 to 499 nM for the second. The first is the more potent here.

First: O=P(O)(O)C(F)(F)c1ccc(CN(Cc2ccc(C(F)(F)P(=O)(O)O)cc2)S(=O)(=O)c2cccc(Oc3ccccc3)c2)cc1 [Compound 72, [(4-{[[4-(Difluoro-phosphono-methyl)-benzyl]-(3-phenoxy-benzenesulfonyl)-amino]-methyl}-phenyl)-difluoro-methyl]-phosphonic acid]
Second: COc1ccccc1S(=O)(=O)N(Cc1ccc(-c2nn[nH]n2)cc1)Cc1ccc(-c2nn[nH]n2)cc1 [Compound 110, 2-Methoxy-N,N-bis-[4-(2H-tetrazol-5-yl)-benzyl]-benzenesulfonamide]
The IC50 of the first is lower: 250 to 499 nM for the first, over 25000 nM for the second. The first is the more potent here.

First: COc1ccccc1S(=O)(=O)N(Cc1ccc(Cl)c(Cl)c1)Cc1ccc(C(F)(F)P(=O)(O)O)c(Cl)c1 [Compound 146, [(2-Chloro-4-{[(3,4-dichloro-benzyl)-(2-methoxy-benzenesulfonyl)-amino]-methyl}-phenyl)-difluoro-methyl]-phosphonic acid]
Second: COc1ccccc1S(=O)(=O)N(Cc1ccc(C#N)cc1)Cc1ccc(CC(C(=O)O)C(=O)O)cc1 [Compound 140, 2-(4-{[(4-Cyano-benzyl)-(2-methoxy-benzenesulfonyl)-amino]-methyl}-benzyl)-malonic acid]
The IC50 of the first is lower: 250 to 499 nM for the first, over 25000 nM for the second. The first is the more potent here.

First: {[4-(difluorophosphonomethyl)-3-chlorophenyl]methyl}[(2-methoxyphenyl)sulfonyl]{[2-(4-methylphenyl)phenyl]methyl}amine [Compound 198]
Second: COc1ccccc1S(=O)(=O)N(Cc1ccc(S(C)(=O)=O)cc1)Cc1ccc(C(F)(F)P(=O)(O)O)c(Cl)c1 [Compound 137, [(2-Chloro-4-{[(4-methanesulfonyl-benzyl)-(2-methoxy-benzenesulfonyl)-amino]-methyl}-phenyl)-difluoro-methyl]-phosphonic acid]
The IC50 of the first is lower: under 99 nM for the first, 250 to 499 nM for the second. The first is the more potent here.

N#Cc1cccc(-c2ccc(CN(Cc3ccc(C(F)(F)P(=O)(O)O)c(Cl)c3)S(=O)(=O)c3ccc4ccccc4c3)cc2)c1 [Compound 154, [(2-Chloro-4-{[(3′-cyano-biphenyl-4-ylmethyl)-(naphthalene-2-sulfonyl)-amino]-methyl}-phenyl)-difluoro-methyl]-phosphonic acid] and COc1ccccc1S(=O)(=O)N(Cc1ccc(C(F)(F)P(=O)(O)O)c(Cl)c1)Cc1ccccc1OC(C)C [Compound 211, {[4-(difluorophosphonomethyl)-3-chlorophenyl]methyl}[(2-methoxyphenyl)sulfonyl]{[2-(methylethoxy)phenyl]methyl}amine] fall in the same range of IC50: 250 to 499 nM for the first, 250 to 499 nM for the second.

First: COc1ccccc1S(=O)(=O)N(Cc1ccc(C(F)(F)P(=O)(O)O)c(Cl)c1)Cc1ccccc1-c1ccncc1 [Compound 180, [(2-Chloro-4-{[(2-methoxy-benzenesulfonyl)-(2-pyridin-4-yl-benzyl)-amino]-methyl}-phenyl)-difluoro-methyl]-phosphonic acid]
Second: O=P(O)(O)C(F)(F)c1ccc(CN(Cc2ccc(-c3cccc(-c4nn[nH]n4)c3)cc2)S(=O)(=O)c2ccc(F)cc2Cl)cc1Cl [Compound 169, {[2-Chloro-4-({(2-chloro-4-fluoro-benzenesulfonyl)-[3′-(2H-tetrazol-5-yl)-biphenyl-4-ylmethyl]-amino}-methyl)-phenyl]-difluoro-methyl}-phosphonic acid]
The IC50 of the first is higher: 100 to 249 nM for the first, under 99 nM for the second.

O=P(O)(O)C(F)(F)c1ccc(CN(Cc2ccc(C(F)(F)P(=O)(O)O)cc2)S(=O)(=O)c2ccccc2)cc1 [Compound 60, {[4-({Benzenesulfonyl-[4-(difluoro-phosphono-methyl)-benzyl]-amino}-methyl)-phenyl]-difluoro-methyl}-phosphonic acid] and O=P(O)(O)C(F)(F)c1ccc(CN(Cc2ccc(C(F)(F)P(=O)(O)O)cc2)S(=O)(=O)c2ccc3ccccc3c2)cc1 [Compound 71, [(4-{[[4-(Difluoro-phosphono-methyl)-benzyl]-(naphthalene-2-sulfonyl)-amino]-methyl}-phenyl)-difluoro-methyl]-phosphonic acid] fall in the same range of IC50: 250 to 499 nM for the first, 250 to 499 nM for the second.

First: CCOC(=O)[C@H](C)NP(=O)(O)C(F)(F)c1ccc(CN(Cc2ccc(-c3cccc(C#N)c3)cc2)S(=O)(=O)c2ccccc2OC)cc1Cl [Compound 219, [S]-N-[(2-Chloro-4-{[(3′-cyano-biphenyl-4-ylmethyl)-(2-methoxy-benzenesulfonyl)-amino]-methyl}-phenyl)-difluoro-methyl]-phosphonyl-(ethyl alaninate)]
Second: COc1ccccc1S(=O)(=O)N(Cc1ccc(C#N)cc1)Cc1ccc(NC(=O)C(=O)O)cc1 [Compound 118, N-(4-(N-oxalylamino]benzyl)-N-(4-cyanobenzyl)-(2-methoxy)benzenesulfonamide]
The IC50 of the first is lower: 250 to 499 nM for the first, over 25000 nM for the second. The first is the more potent here.

COc1ccccc1S(=O)(=O)N(Cc1ccc(N(CC(C)C(=O)O)C(=O)C(=O)O)cc1)Cc1ccc(N(CC(C)C(=O)O)C(=O)C(=O)O)cc1 (centres unmarked) [Compound 223, 3-[(4-{[{4-[(2-Carboxy-propyl)-oxalyl-amino]-benzyl}-(2-methoxy-benzenesulfonyl)-amino]-methyl}-phenyl)-oxalyl-amino]-2-methyl-propionic acid] and COc1ccccc1S(=O)(=O)N(Cc1ccc(C#N)cc1)Cc1ccc(NC(=O)C(=O)O)c(C(=O)O)c1 [Compound 133] cannot be ordered by IC50: over 25000 nM for the first, over 25000 nM for the second.

Compared with COc1ccccc1S(=O)(=O)N(Cc1ccc(C(F)(F)P(=O)(O)O)c(Cl)c1)Cc1ccccc1C [Compound 167, [(2-Chloro-4-{[(2-methoxy-benzenesulfonyl)-(2-methyl-benzyl)-amino]-methyl}-phenyl)-difluoro-methyl]-phosphonic acid], O=[N+]([O-])c1ccc(CN(Cc2ccc(Cl)c(Cl)c2)S(=O)(=O)c2ccccc2Cl)cc1 [Compound 81, 2-Chloro-N-(3,4-dichloro-benzyl)-N-(4-nitro-benzyl)-benzenesulfonamide] is higher in IC50: 250 to 499 nM for the first, over 25000 nM for the second.

Compared with O=P(O)(O)C(F)(F)c1ccc(CN(Cc2ccccc2)Cc2ccc(C(F)(F)P(=O)(O)O)cc2)cc1 [Compound 65, {[4-({Benzyl-[4-(difluoro-phosphono-methyl)-benzyl]-amino}-methyl)-phenyl]-difluoro-methyl}-phosphonic acid], CC(C)COC(=O)N(Cc1ccc(C(F)(F)P(=O)(O)O)cc1)Cc1ccc(C(F)(F)P(=O)(O)O)cc1 [Compound 61, {[4-({[4-(Difluoro-phosphono-methyl)-benzyl]-isobutoxycarbonyl-amino}-methyl)-phenyl]-difluoro-methyl}-phosphonic acid] is lower in IC50: over 25000 nM for the first, 2500 to 25000 nM for the second. The second is the more potent here.

Compared with O=P(O)(O)C(F)(F)c1ccc(CN(Cc2ccc(C(F)(F)P(=O)(O)O)cc2)S(=O)(=O)c2ccccc2F)cc1 [Compound 83, [(4-{[[4-(Difluoro-phosphono-methyl)-benzyl]-(2-fluoro-benzenesulfonyl)-amino]-methyl}-phenyl)-difluoro-methyl]-phosphonic acid], COc1cccc(-c2ccccc2CN(Cc2ccc(C(F)(F)P(=O)(O)O)c(Cl)c2)S(=O)(=O)c2ccccc2OC)c1 [Compound 183, [(2-Chloro-4-{[(2-methoxy-benzenesulfonyl)-(3′-methoxy-biphenyl-2-ylmethyl)-amino]-methyl}-phenyl)-difluoro-methyl]-phosphonic acid] is lower in IC50: 250 to 499 nM for the first, under 99 nM for the second.

In the case of O=P(O)(O)C(F)(F)c1ccc(CN(Cc2ccccc2-c2ccccc2)S(=O)(=O)c2cnccc2I)cc1Cl [Compound 230, [(4-{[Biphenyl-2-ylmethyl-(4-iodo-pyridine-3-sulfonyl)-amino]-methyl}-2-chloro-phenyl)-difluoro-methyl]-phosphonic acid], the IC50 is reported as 100 to 249 nM.
